Data from patent US7282354B2, “Method for producing fermented milk product” (Calpis Co., Ltd., priority 2000, dated 2007).

What was measured:
ACE = ACE (Homo sapiens, UniProt P12821); test: ACE inhibitory activity of IPP per unit weight relative to VPP; assay type: biochemical
[1] = tested on: spontaneously hypertensive rat (SHR); settings: J. Dairy Sci. 78:1253-1257(1995); cited from earlier work

Sequence of ACE (P12821 30-1306, species assumed): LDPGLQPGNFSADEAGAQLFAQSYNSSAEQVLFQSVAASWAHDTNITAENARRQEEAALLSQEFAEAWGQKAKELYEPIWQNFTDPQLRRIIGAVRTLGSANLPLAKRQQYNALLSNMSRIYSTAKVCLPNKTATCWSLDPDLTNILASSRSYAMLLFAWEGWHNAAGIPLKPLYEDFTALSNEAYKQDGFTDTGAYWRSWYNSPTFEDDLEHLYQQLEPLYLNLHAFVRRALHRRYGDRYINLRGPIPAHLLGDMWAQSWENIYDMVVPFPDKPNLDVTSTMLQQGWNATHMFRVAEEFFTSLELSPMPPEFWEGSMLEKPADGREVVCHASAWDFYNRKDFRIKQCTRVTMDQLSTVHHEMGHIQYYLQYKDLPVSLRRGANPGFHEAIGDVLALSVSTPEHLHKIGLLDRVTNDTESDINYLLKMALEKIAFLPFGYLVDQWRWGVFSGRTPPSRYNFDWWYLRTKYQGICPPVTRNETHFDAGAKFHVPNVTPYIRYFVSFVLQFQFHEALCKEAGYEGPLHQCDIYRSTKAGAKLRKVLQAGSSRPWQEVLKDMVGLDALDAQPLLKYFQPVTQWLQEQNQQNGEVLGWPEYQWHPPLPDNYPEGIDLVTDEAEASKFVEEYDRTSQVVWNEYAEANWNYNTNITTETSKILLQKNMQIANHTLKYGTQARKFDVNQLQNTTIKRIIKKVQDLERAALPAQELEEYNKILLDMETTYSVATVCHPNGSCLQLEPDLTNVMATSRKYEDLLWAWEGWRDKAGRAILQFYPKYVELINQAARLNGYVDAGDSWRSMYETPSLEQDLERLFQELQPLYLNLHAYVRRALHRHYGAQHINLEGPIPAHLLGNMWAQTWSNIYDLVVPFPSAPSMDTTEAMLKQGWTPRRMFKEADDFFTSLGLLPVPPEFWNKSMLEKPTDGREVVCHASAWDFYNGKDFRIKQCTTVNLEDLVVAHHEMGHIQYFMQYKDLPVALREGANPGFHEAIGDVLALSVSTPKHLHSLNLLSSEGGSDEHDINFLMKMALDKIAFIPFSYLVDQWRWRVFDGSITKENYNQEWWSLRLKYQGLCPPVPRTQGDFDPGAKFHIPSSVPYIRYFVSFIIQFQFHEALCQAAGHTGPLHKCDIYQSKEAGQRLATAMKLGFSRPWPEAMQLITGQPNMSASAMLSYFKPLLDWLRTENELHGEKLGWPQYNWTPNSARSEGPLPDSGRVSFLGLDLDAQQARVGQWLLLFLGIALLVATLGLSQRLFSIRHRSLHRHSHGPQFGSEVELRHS

Row | Substance | ACE inhibitory activity per unit weight relative to VPP (ACE) | Hypotensive effect [1]
1 | Ile-Pro-Pro [IPP] | 1.7 times that of VPP | strong hypotensive effect
2 | Val-Pro-Pro [VPP] | – | strong hypotensive effect
